Source: PubChem BioAssay AID850 (SRMLSC, 2007)
pIC50: −log10 of the molar value. The source made the active and inactive calls. No rule for the calls is given here.

Key:
[1] = concentration-response yeast growth inhibition under permissive conditions, counter-assay for yeast lifespan-shortening chemical project (AID 850); details: Saccharomyces cerevisiae growth inhibition, permissive control, measured here: maximum growth inhibition, stronger effect = higher value;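 also: growth read as optical density after one day of incubation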
[2] = tested on: Saccharomyces cerevisiae growth inhibition, permissive control; test: as above

SMILES | IC50 [2] | inhibition ([1]; at 50 µM) | pIC50 [2] | also measured
CCOC(=O)c1c(N)sc(C(O)(C(F)(F)F)C(F)(F)F)c1-c1ccc(F)cc1 | > 100 µM (inactive) | – | – | inhibition ([1]; at 0.098 µM): 8.89%
Cc1ccc(CNC(=O)CS(=O)Cc2nc(-c3cccs3)oc2C)cc1 (stereo unspecified) | > 100 µM (inactive) | – | – | inhibition ([1]; at 0.391 µM): 13.8%
NC(=O)c1ccc(N=Cc2ccc([N+](=O)[O-])s2)cc1 | – | 101% | 4.96 | –
CCOC(=O)C1CCCCN1C(=O)CCc1c(C)nc2cc(-c3ccccc3)nn2c1C (stereo unspecified) | > 100 µM (inactive) | – | – | inhibition ([1]; at 25 µM): 21.6%
CCC(=O)NC(c1ccc(C)cc1)c1cc([N+](=O)[O-])c2cccnc2c1O (stereo unspecified) | – | 60.6% | 4.36 | –
Cc1nn2c3ccccc3nc2c2ccccc12 | > 100 µM (inactive) | – | – | inhibition ([1]; at 0.195 µM): 15.3%
Cc1ccc(NN2C(=O)C=C(c3ccc(Cl)cc3)C2=O)cc1 | – | 98% | 5.02 | –
Cc1cc(O)c(/C=N/Nc2ccccc2)c(=O)o1 | – | 97.9% | 4.71 | –
COc1cccc(/C=N/Nc2ncc(C(F)(F)F)cc2Cl)c1O | > 100 µM (inactive) | 29.3% | – | –
CC(C)(C)n1nc(-c2ccc(F)cc2)c2c(N)ncnc21 | – | – | > 7.01 | inhibition ([1]; at 25 µM): 86.7%
COc1ccc(-c2nncnn2)cc1 | – | 99.8% | 5.15 | –
Cn1c(N2CCOCC2)c(/C=N/OC(=O)c2ccc(F)cc2)c2ccccc21 | > 100 µM (inactive) | 19.1% | – | –
Cc1nc2ccccc2c2nc3ccccc3n12 | – | 63.9% | 4.41 | –
CCOCCCNC(=O)c1ccc(Br)cc1 | > 100 µM (inactive) | – | – | inhibition ([1]; at 1.563 µM): 27.6%
Cc1cc(N2CCN(c3cccc(C)c3C)CC2)nc(-c2ccccc2)n1 | – | 93% | 4.43 | –
CCOC(=O)c1c(-c2ccc(-c3ccccc3)cc2)csc1NC(=O)CCN1CCOCC1 | – | 94.6% | 4.81 | –
COc1ccc(/C(C)=N/NC(=O)c2ccc(CSc3cccc4cccnc34)cc2)cc1OC | > 100 µM (inactive) | – | – | inhibition ([1]; at 6.25 µM): 12.5%
CCN(CC)S(=O)(=O)c1ccc(NC(=O)CSc2cccc[n+]2[O-])cc1 | – | 90.1% | 4.50 | –
COc1ccc(-c2cc(C(=O)N3CCN(c4ncccn4)CC3)c3ccccc3n2)c(OC)c1 | > 100 µM (inactive) | – | – | inhibition ([1]; at 12.5 µM): 23.4%
CCn1c2ccccc2c2cc(Nc3cc(C)nc4ncnn34)ccc21 | > 100 µM (inactive) | – | – | inhibition ([1]; at 6.25 µM): 14.4%
CCc1cc2c(=O)[nH]c(-c3ccccn3)nc2s1 | – | 86.2% | 4.63 | –
O=C1CSC(=S)N1c1cccnc1 | > 100 µM (inactive) | 14.8% | – | –
c1ccc(Cc2nnc3sc(-c4ccc5c(c4)OCCO5)nn23)cc1 | > 100 µM (inactive) | – | – | inhibition ([1]; at 1.563 µM): 14.5%
CCN1/C(=C/C=C/C=C/c2sc3ccccc3[n+]2CC)Sc2ccccc21 | – | – | 4.95 | inhibition ([1]; at 25 µM): 87.5%
NC(N)=N/N=C/c1ccc(OCc2ccc(Cl)cc2)cc1 | – | 81.6% | 4.46 | –
CCN(CC)N=Nc1[nH]nc2nc(C)cc(C)c12 | – | 55.1% | 4.31 | –

SMILES | IC50 [2] | inhibition ([1]; at 50 µM) | pIC50 [2] | also measured
COc1ccc(-c2cc(=O)n(-c3nc4ccccc4[nH]3)[nH]2)cc1 | – | 98.2% | 4.84 | –
CCCCCC/C(C)=C1/SC(=S)NC1=O | > 100 µM (inactive) | – | – | inhibition ([1]; at 12.5 µM): 15.5%
Cc1nc2ccc(NC(=O)c3cc([N+](=O)[O-])cc([N+](=O)[O-])c3Cl)cc2s1 | – | 98.4% | 4.82 | –
Cc1ccccc1NC(=S)c1nc2ccccc2[nH]1 | – | 95.3% | 4.93 | –
C=CCNC(=S)N/N=C(\C)c1ccccn1 | – | 99.4% | 4.86 | –
CCOC(=O)C1=Nc2ccccc2C1=[N+]=[N-] | – | 99.2% | 5.26 | –
Cc1ccc(-c2nc3sc(C(N)=O)c(N)c3c3c2CCCC3)cc1 | > 100 µM (inactive) | 14.4% | – | –
O=[N+]([O-])c1ccc(N/N=C/c2ccc[nH]2)cc1 | > 100 µM (inactive) | 5.41% | – | –
Cc1ccc(S(=O)(=O)Nc2ccc(SC(F)F)cc2)c(C)c1 | > 100 µM (inactive) | – | – | inhibition ([1]; at 0.781 µM): 21.4%
O=C(OCn1ncc(Cl)c(Cl)c1=O)c1ccc(F)cc1 | > 100 µM (inactive) | 23% | – | –
CCCC(=O)NC(c1cccs1)c1cc([N+](=O)[O-])c2cccnc2c1O (stereo unspecified) | – | 96.5% | 4.62 | –
O=C(CSC1=NCCS1)N1CCN(c2ccc(Cl)cc2)CC1 | > 100 µM (inactive) | 20.7% | – | –
CC(C)(C)c1cc(NCCCn2ccnc2)n2ncc(-c3ccc(Cl)cc3)c2n1 | > 100 µM (inactive) | – | – | inhibition ([1]; at 12.5 µM): 1.41%
COc1ccc(-c2nnc3sc(C(C)N4C(=O)c5ccccc5C4=O)nn23)cc1 (stereo unspecified) | > 100 µM (inactive) | – | – | inhibition ([1]; at 6.25 µM): 14%
Clc1cc2nc3ccccn3c2cc1Cl | > 100 µM (inactive) | 16% | – | –
O=C1c2cccc3cccc(c23)C(=O)N1c1cccnc1 | > 100 µM (inactive) | 27.9% | – | –
CCN1/C(=C/c2ccc3cccc(C)c3[n+]2CC)Sc2ccccc21 | – | 99.4% | 5.10 | –
CN(c1ccc(O)cc1)c1nc(-c2ccccc2)cs1 | > 100 µM (inactive) | – | – | inhibition ([1]; at 0.781 µM): 9.5%
Oc1c(CN2CCCCC2)cc(Br)c2cccnc12 | – | 99.8% | 5.14 | –
OC(COc1ccc2ccccc2c1Br)Cn1cnc(-c2ccccc2)c1 (stereo unspecified) | > 100 µM (inactive) | 20.9% | – | –
O=C(O)Cc1ccc2sc(-c3ccccc3)nc2c1 | > 100 µM (inactive) | 26.9% | – | –
CCOC(=O)c1sc(=S)n(-c2cc(F)ccc2F)c1N | > 100 µM (inactive) | – | – | inhibition ([1]; at 25 µM): 29.2%
Cc1ccc(-n2nnc3c(=O)n(CC(=O)N4CCC(C)CC4)cnc32)cc1 | > 100 µM (inactive) | – | – | inhibition ([1]; at 25 µM): 17.4%
C=C(C)COc1ccc(-c2[nH]ncc2-c2ccccc2OC)c(O)c1 | > 100 µM (inactive) | – | – | inhibition ([1]; at 0.781 µM): 23%
Cc1nc(Cl)c2oc3ccccc3c2n1 | > 100 µM (inactive) | 15.8% | – | –
Cc1ccc(-c2cc(-c3ccccc3Cl)[nH]n2)c(O)c1 | > 100 µM (inactive) | – | – | inhibition ([1]; at 0.781 µM): 16.4%

SMILES | IC50 [2] | inhibition ([1]; at 50 µM) | pIC50 [2] | also measured
NNC(=O)c1ccc(COc2cccc3ccccc23)cc1 | – | 94.7% | 4.70 | –
Cc1nn2c(-c3ccncc3)nnc2c2ccccc12 | – | – | 4.93 | inhibition ([1]; at 25 µM): 73.2%
O=C1OCC(CO)(CO)N=C1NNc1cc(Cl)ccc1Cl | – | 99.2% | 4.94 | –
Cc1cccc(-c2nnc3sc(-c4ccccc4C)nn23)c1 | > 100 µM (inactive) | 29.1% | – | –
O=S(=O)(/N=C(\Sc1ccc(Cl)cc1)c1ccccc1)c1ccccc1 | – | 74% | 4.48 | –
N#CC(c1cccc(Cl)c1)c1ccc2c(C(F)(F)F)cc(C(F)(F)F)nc2n1 (stereo unspecified) | > 100 µM (inactive) | 4.48% | – | –
C=CCN1C(=O)/C(=C/c2cccs2)C(=O)NC1=S | – | 99.8% | 5.21 | –
CCOC(=O)c1c(/N=C/c2cc([N+](=O)[O-])ccc2O)sc(C)c1C | – | – | 4.40 | inhibition ([1]; at 25 µM): 52.7%
c1ccc2nc3ccccc3nc2c1 | – | 55.6% | 4.35 | –
CCN1/C(=C/c2ccc3cc(C)ccc3[n+]2CC)Sc2ccccc21 | – | 99.4% | 5.46 | –
Cc1cc(-c2ccco2)c(C#N)c2nc3ccccc3n12 | – | 77.8% | 5.06 | –
Oc1cc(-c2ccccc2)c2ccccc2c1 | – | 92.8% | 4.45 | –
COC1=C(N)C(=O)c2nc(-c3nc(C(=O)O)c(C)c(-c4ccc(OC)c(OC)c4O)c3N)ccc2C1=O | – | 98.7% | 6.33 | –
CCSc1nc2ccccc2n1S(=O)(=O)c1ccccc1 | > 100 µM (inactive) | – | – | inhibition ([1]; at 3.125 µM): 26.4%
Cc1ccc2nc3c(nc2c1)-c1ccccc1C3=O | > 100 µM (inactive) | 17% | – | –
COc1cc(/C=C2\C(=O)ON=C2c2ccccc2)cc(OC)c1OC | > 100 µM (inactive) | – | – | inhibition ([1]; at 0.781 µM): -2.57%
CCC(=C(c1ccc(OC)cc1)c1ccc(OC)cc1)c1cn(CC(O)CN2CCN(C)CC2)c2ccccc12 (stereo unspecified) | – | 93.2% | 4.47 | –
O=[N+]([O-])c1cc(Cc2ccccc2)cc(C=Nc2ccc(N3CCOCC3)cc2)c1O | – | – | 4.82 | inhibition ([1]; at 25 µM): 82.7%
CCOc1ccc(N/N=C(/C#N)C(N)=O)cc1 | – | 87.7% | 4.96 | –
CC(C)CNC(=O)CN(C1CCCCC1)S(C)(=O)=O | > 100 µM (inactive) | – | – | inhibition ([1]; at 1.563 µM): 9.04%
O=C(COc1ccccc1)NNC(=S)NC(=O)c1ccc(Cl)cc1Cl | – | 84.4% | 4.59 | –
c1ccc(N(c2ccccc2)c2nc(-n3ccnc3)nc(-n3ccnc3)n2)cc1 | – | 62.1% | 4.42 | –
CC(C)CC(=O)/C(=C\c1ccc(Cl)cc1Cl)n1cncn1 | – | 100% | 4.93 | –
CN1C(=O)c2cccc3c(Cl)ccc(c23)C1=O | > 100 µM (inactive) | 19.1% | – | –
O=Cc1c(Sc2ccccc2)nc2ccccn2c1=O | > 100 µM (inactive) | – | – | inhibition ([1]; at 12.5 µM): 2.01%
O=C(CCc1ccccc1)NNC(=S)NC(=O)c1ccccc1 | > 100 µM (inactive) | – | – | inhibition ([1]; at 12.5 µM): 22.5%
